Experimental data taken from patent US10881110B2, “Herbicidal compositions comprising isoxazolo[5,4-b]pyridines” (BASF SE, priority 2014, dated 2021).
Read-outs that look alike come from different tables or passages of the source.

Experiments:
Assay in all cases: greenhouse post-emergence herbicidal test
KCHSC = assay type: in vivo, Kochia scoparia; design: key to herbicidal activity against KCHSC found: rating on a scale from 0 to 100; settings: post emergence
Procedure, shortened: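 Post-emergence greenhouse test: plants in loamy sand, sprayed at 1–15 cm height with aqueous spray liquor from 10% emulsion concentrates, kept at 10-25 °C or 20-35 °C by species. Damage scored 0–100 (100 = complete destruction), usually 20 days after treatment. Expected additive effect E from Colby: E=X+Y−(X·Y/100).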

APESV = assay type: in vivo, Apera spica-venti; design: key to herbicidal activity against APESV found: rating on a scale from 0 to 100; settings: post emergence; for pest or weed control at 31.25 g/ha / pest or weed control at 62.5 g/ha / pest or weed control at 125 g/ha: Apera spica-venti, post-emergence, 480 h, read-out: herbicidal activity against APESV found
Procedure, shortened: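 Each species was sown separately, grown to a height of 1 to 15 cm and then sprayed with water-dispersed components A, B and where relevant C. Growth conditions were 10-25° C or 20-35° C, and percent damage was recorded at 20 days.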

LAMAM = assay type: in vivo, Lamium amplexicaule; design: key: scale 0 to 100
Method: The culture containers used were plastic pots containing medium loamy sand with approximately 4.6% of humus and 69.9% sand as substrate. The seeds of the test plants were sown separately for each species.
For the post-emergence treatment, the test plants were grown to a plant height of from 1 to 15 cm, depending on the plant habit, and only then treated with the active compounds which had been suspended or emulsified in water. To this end, the test plants were either sown directly, and grown in the same containers, or they were first grown separately as seedlings and transplanted into the test containers a few days prior to treatment.
Depending on the species, the plants were kept at 10-25° C. and 20-35° C., respectively.
The test period extended over 1 to 3 weeks. During this time, the plants were tended and their response to the individual treatments was evaluated 20 days after treatment except mentioned otherwise.
Evaluation was carried out using a scale from 0 to 100. 100 means no emergence of the plants, or complete destruction of at least the above-ground parts, and 0 means no damage or normal course of growth.
The respective stated components A and B, and, if appropriate, C, were formulated as a 10% by weight strength emulsion concentrate and, with addition of the amount of solvent system, introduced into the spray liquor used for applying the active compound. In the examples, the solvent used was water.
In the examples below, using the method of S. R. Colby (1967) “Calculating synergistic and antagonistic responses of herbicide combinations”, Weeds 15, p. 22 ff., the value E, which is expected if the activity of the individual active compounds is only additive, was calculated. E=X+Y−(X·Y/100)

[1] = I.1 15.62 g/ha, B.88 1 g/ha a.i.
[2] = I.1 31.25 g/ha, B.88 1 g/ha a.i.
[3] = I.1 62.5 g/ha, B.88 1 g/ha a.i.
[4] = applied alone at 31.25 g/ha a.i.
[5] = g/ha a.i.: I.1 31.25, B.24 1, mixture 31.25+1

SMILES: O=C(O)c1cc(C2CC2)nc2onc(C3CC3)c12 [I.1]
- pest or weed control at 62.5 g/ha (KCHSC; Bassia scoparia, post-emergence, 480 h, single active, 62.5 g/ha a.i., read-out: herbicidal activity against KCHSC found): 70%
- herbicidal activity against KCHSC found (KCHSC; 6 days after treatment, g/ha a.i.: I.1 31.25, B.96 35, mixture 31.25+35): 10
- herbicidal activity against KCHSC found (KCHSC; 6 days after treatment, g/ha a.i.: I.1 31.25, B.96 70, mixture 31.25+70): 10
- herbicidal activity against KCHSC found (KCHSC; 6 days after treatment, g/ha a.i.: I.1 31.25, B.96 140, mixture 31.25+140): 10
- herbicidal activity against KCHSC found (KCHSC; 6 days after treatment, g/ha a.i.: I.1 31.25, naptalam 100, mixture 31.25+100): 10
- herbicidal activity against KCHSC found (KCHSC; 6 days after treatment, g/ha a.i.: I.1 31.25, naptalam 200, mixture 31.25+200): 10
- herbicidal activity against KCHSC found (KCHSC; 6 days after treatment, g/ha a.i.: I.1 62.5, B.96 35, mixture 62.5+35): 90
- herbicidal activity against KCHSC found (KCHSC; 6 days after treatment, g/ha a.i.: I.1 62.5, B.96 70, mixture 62.5+70): 90
- herbicidal activity against KCHSC found (KCHSC; [1]): 45
- herbicidal activity against KCHSC found (KCHSC; I.1 31.25 g/ha, B.103 7.5 g/ha a.i.): 30
- herbicidal activity against KCHSC found (KCHSC; I.1 31.25 g/ha, B.103 15 g/ha a.i.): 30
- herbicidal activity against KCHSC found (KCHSC; I.1 31.25 g/ha, B.167 62.5 g/ha a.i.): 30
- herbicidal activity against KCHSC found (KCHSC; [2]): 55
- herbicidal activity against KCHSC found (KCHSC; I.1 62.5 g/ha, B.103 7.5 g/ha a.i.): 70
- herbicidal activity against KCHSC found (KCHSC; I.1 62.5 g/ha, B.103 15 g/ha a.i.): 70
- herbicidal activity against KCHSC found (KCHSC; I.1 62.5 g/ha, B.167 62.5 g/ha a.i.): 70
- herbicidal activity against KCHSC found (KCHSC; [3]): 80
- herbicidal activity against KCHSC found (KCHSC; [4]): 80
- herbicidal activity against KCHSC found (KCHSC; applied alone at 125 g/ha a.i.): 95
- herbicidal activity against KCHSC found (KCHSC; [5]): 40
- herbicidal activity against KCHSC found (KCHSC; g/ha a.i.: I.1 31.25, B.24 2, mixture 31.25+2): 40
- pest or weed control at 31.25 g/ha (APESV; I.1 alone 31.25 g/ha a.i.): 0%
- pest or weed control at 62.5 g/ha (APESV; I.1 alone 62.5 g/ha a.i.): 0%
- pest or weed control at 125 g/ha (APESV; I.1 alone 125 g/ha a.i.): 0%
- pest or weed control at 31.25 g/ha (APESV; 31.25 g/ha a.i.): 0%
- pest or weed control at 62.5 g/ha (APESV; 62.5 g/ha a.i.): 0%
- pest or weed control at 125 g/ha (APESV; I.1 125 g/ha a.i.): 15%
- pest or weed control at 31.25 g/ha (APESV; single active, 31.25 g/ha a.i.): 0%
- pest or weed control at 62.5 g/ha (APESV; single active, 62.5 g/ha a.i.): 0%
- pest or weed control at 125 g/ha (APESV; single active, 125 g/ha a.i.): 0%
- herbicidal activity against APESV found (APESV; [1]): 0
- herbicidal activity against APESV found (APESV; I.1 15.62 g/ha, B.95 1 g/ha a.i.): 0
- herbicidal activity against APESV found (APESV; [2]): 0
- herbicidal activity against APESV found (APESV; I.1 31.25 g/ha, B.88 2 g/ha a.i.): 0
- herbicidal activity against APESV found (APESV; [3]): 10
- herbicidal activity against APESV found (APESV; I.1 62.5 g/ha, B.88 2 g/ha a.i.): 10
- herbicidal activity against APESV found (APESV; I.1 62.5 g/ha, B.95 1 g/ha a.i.): 10
- herbicidal activity against APESV found (APESV; a.i. g/ha: I.1 2.3, B.67 62.5, 20 days after treatment): 0%
- herbicidal activity against APESV found (APESV; a.i. g/ha: I.1 6.9, B.67 62.5, 20 days after treatment): 0%
- herbicidal activity against APESV found (APESV; [4]): 0
- herbicidal activity against APESV found (APESV; applied alone at 125 g/ha a.i.): 15
- herbicidal activity against APESV found (APESV; [5]): 20
- herbicidal activity against APESV found (APESV; g/ha a.i.: I.1 62.5, B.20 4, mixture 62.5+4): 20
- herbicidal activity against APESV found (APESV; g/ha a.i.: I.1 62.5, B.52 2.5, mixture 62.5+2.5): 20
- herbicidal activity against APESV found (APESV; g/ha a.i.: I.1 125, B.52 2.5, mixture 125+2.5): 35
- herbicidal activity against LAMAM, found (LAMAM; 31.25 g/ha a.i.): 70
- herbicidal activity against LAMAM, found (LAMAM; application rate a.i.: I.1 31.25 g/ha, B.139 (pyroxasulfone) 25 g/ha, alone or as mixture (composition 1.139)): 80
- herbicidal activity against LALAM, found (LAMAM; application rate a.i.: I.1 31.25 g/ha, B.87 (carfentrazone-ethyl) 1.75 g/ha, alone or as mixture (composition 1.87)): 70
- herbicidal activity against LAMAM, found (LAMAM; application rate a.i.: I.1 62.5 g/ha, B.87 (carfentrazone-ethyl) 1.75 g/ha, alone or as mixture (composition 1.87)): 85
